Reference: patent US9079868B2, “Selective glycosidase inhibitors and uses thereof” (Simon Fraser University, priority 2008, dated 2015)

Target: O-GlcNAcase (Homo sapiens (Human), UniProt O60502)
Test: Determination of KI values for inhibition of O-GlcNAcase activity (pNP-GlcNAc substrate, Dixon plots)
Assay type: biochemical
Settings: PBS pH 7.4, 0.5 mM pNP-GlcNAc, 37° C., linear regression of a Dixon plot
Procedure: Assay for Determination of […] for Inhibition of O-GlcNAcase Activity
Experimental Procedure for Kinetic Analyses:
Enzymatic reactions are carried out in PBS buffer (pH 7.4) using pNP-GlcNAc as a substrate (0.5 mM) and monitored continuously at 37° C. at 400 nm using a Cary 3E UV-VIS spectrophotometer equipped with a Peltier temperature controller. Reactions are pre-heated in a 500 μL quartz cuvette for approximately 5 minutes followed by addition of 10 μL enzyme via syringe (final enzyme concentration 0.002 mg/mL). Reaction velocities are determined by linear regression of the linear region of the reaction progress curve between the first and third minutes. An inhibitor concentration range of ⅕ to 5 times K1 is used in each case. […] All K1 values are determined using linear regression of Dixon plots.

Sequence of O-GlcNAcase (O60502 whole entry): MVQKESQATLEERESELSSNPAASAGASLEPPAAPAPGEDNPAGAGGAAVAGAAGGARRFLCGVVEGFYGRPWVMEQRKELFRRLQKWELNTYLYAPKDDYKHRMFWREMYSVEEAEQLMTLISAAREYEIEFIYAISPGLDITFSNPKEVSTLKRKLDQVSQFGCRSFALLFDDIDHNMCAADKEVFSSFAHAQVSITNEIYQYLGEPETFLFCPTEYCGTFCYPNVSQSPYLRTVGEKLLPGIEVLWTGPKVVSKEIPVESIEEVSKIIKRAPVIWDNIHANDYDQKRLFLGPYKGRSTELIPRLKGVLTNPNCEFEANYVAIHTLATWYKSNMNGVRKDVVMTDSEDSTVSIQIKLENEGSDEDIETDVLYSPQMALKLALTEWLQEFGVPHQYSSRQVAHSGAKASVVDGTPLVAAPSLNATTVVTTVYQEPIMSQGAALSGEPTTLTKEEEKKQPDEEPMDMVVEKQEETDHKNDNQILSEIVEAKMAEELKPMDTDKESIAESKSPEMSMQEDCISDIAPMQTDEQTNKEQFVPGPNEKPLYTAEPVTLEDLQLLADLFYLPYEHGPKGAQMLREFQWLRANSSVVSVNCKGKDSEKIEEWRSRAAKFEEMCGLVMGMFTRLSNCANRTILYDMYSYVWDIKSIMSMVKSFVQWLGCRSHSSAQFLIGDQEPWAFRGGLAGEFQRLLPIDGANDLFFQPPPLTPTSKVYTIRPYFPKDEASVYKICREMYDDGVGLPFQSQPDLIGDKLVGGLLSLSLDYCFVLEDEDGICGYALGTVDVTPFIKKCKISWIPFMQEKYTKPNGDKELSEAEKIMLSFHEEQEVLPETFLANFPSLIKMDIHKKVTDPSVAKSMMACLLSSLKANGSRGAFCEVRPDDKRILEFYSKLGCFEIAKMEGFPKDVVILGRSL

Ki: 40 µM
Structure (SMILES): CN(C)C1=N[C@@H]2[C@@H](O)[C@H](O)[C@@H](CO)[C@@H]2O1 [Compound 2, (3aR,4R,5R,6R,6aS)-2-(dimethylamino)-6-(hydroxymethyl)-4,5,6,6a-tetrahydro-3aH-cyclopenta[d]oxazole-4,5-diol]
